We go through three molecules from PMC12054364, “Structure of the Fab fragment of a humanized 5E5 antibody to a cancer-specific Tn-MUC1 epitope” (Acta Crystallographica Section D: Structural Biology, 2025).

Ends that are not written are not given here. * marks the point of attachment. αGalNAc = CC(=O)N[C@@H]1[C@@H](O)[C@@H](O)[C@@H](CO)O[C@@H]1*

Assay [1] deals with 1104 Fab. The assay can be described thus: SPR negative control: glycopeptides over immobilized irrelevant 1104 Fab. Format: binding. The settings on record: amine-coupled Fab 1104 (∼10 000 RU), peptide 6.25-100 µM, HBS-EP pH 7.4, 25°C. How it is done:
(§1) The binding kinetics of the h-5E5 Fab to doubly glycosylated Tn-MUC1 peptides were studied by surface plasmon resonance (SPR) using a Biacore T200 instrument (GE Healthcare). All experiments were performed at 25°C with HBS-EP (10 mM HEPES, 150 mM NaCl, 3 mM EDTA, 0.005% Tween 20 pH 7.4) as the running buffer. The purified h-5E5 Fab and an irrelevant 1104 Fab were immobilized [∼10 000 resonance units (RUs) each] on a Series S Sensor Chip CM7 (Cytiva) using an amine-coupling kit (Cytiva) in 10 mM acetate buffer pH 4.0 (Cytiva). Serial dilutions of doubly glycosylated Tn-MUC1 peptides in HBS-EP buffer were injected at a flow rate of 20 µl min^−1 over flow cells containing immobilized h-5E5 Fab and the 1104 Fab (as a negative control). The reference flow cell was blocked with ethanolamine. The association time was set to 30 s and the dissociation time to 60 s. After each run, the sensor chip was regenerated with HBS-EP buffer. The concentrations of the analytes injected were 6.25, 12.5, 25, 50 and 100 µM. […] Reference flow cell subtracted sensorgrams were analyzed with BIAevaluation Software v.3.2 (Cytiva) and affinities were determined by steady-state analysis from three experimental replicates. PAPGS*T*AP binding to amine-coupled 5E5 mAb (∼25 000 RUs) was determined under the same conditions described for the Fab.

Assay [2] has as its target h-5E5 Fab. In words: SPR binding of doubly glycosylated Tn-MUC1 peptides to immobilized h-5E5 Fab. Also noted: species or system humanized. As for the experimental part: The binding kinetics of the h-5E5 Fab to doubly glycosylated Tn-MUC1 peptides were studied by surface plasmon resonance (SPR) using a Biacore T200 instrument (GE Healthcare). All experiments were performed at 25°C with HBS-EP (10 mM HEPES, 150 mM NaCl, 3 mM EDTA, 0.005% Tween 20 pH 7.4) as the running buffer. The purified h-5E5 Fab and an irrelevant 1104 Fab were immobilized [∼10 000 resonance units (RUs) each] on a Series S Sensor Chip CM7 (Cytiva) using an amine-coupling kit (Cytiva) in 10 mM acetate buffer pH 4.0 (Cytiva). Serial dilutions of doubly glycosylated Tn-MUC1 peptides in HBS-EP buffer were injected at a flow rate of 20 µl min^−1 over flow cells containing immobilized h-5E5 Fab and the 1104 Fab (as a negative control). The reference flow cell was blocked with ethanolamine. The association time was set to 30 s and the dissociation time to 60 s. After each run, the sensor chip was regenerated with HBS-EP buffer. The concentrations of the analytes injected were 6.25, 12.5, 25, 50 and 100 µM. The analytes were two doubly glycosylated Tn-MUC1 peptides, PAPGS*T*AP and APGS*T*AP, where * represents GalNAc. Reference flow cell subtracted sensorgrams were analyzed with BIAevaluation Software v.3.2 (Cytiva) and affinities were determined by steady-state analysis from three experimental replicates. PAPGS*T*AP binding to amine-coupled 5E5 mAb (∼25 000 RUs) was determined under the same conditions described for the Fab.

Assay [3] deals with h-5E5 mAb. In words: SPR binding of PAPGS*T*AP to immobilized h-5E5 mAb. More on the design: species or system humanized. The settings on record: amine-coupled mAb (∼25 000 RU), same conditions as for the Fab, steady-state. How it is done:
as §1
A general note: SPR reads the build-up and loss of mass on a sensor chip optically.

Assay [4] has as its target Fab fragment of the humanized 5E5 antibody (h-5E5 Fab) (humanized from mouse | human) (UniProt P01834). In words: SPR; Biacore T200; h-5E5 Fab amine-coupled (~10 000 RU) on a CM7 chip; glycopeptides flowed at 6.25-100 µM, 20 µl/min; 25°C; HBS-EP (10 mM HEPES, 150 mM NaCl, 3 mM EDTA, 0.005% Tween 20 pH 7.4); steady-state analysis, three replicates.
Assay [5] has as its target humanized 5E5 monoclonal antibody (h-5E5 mAb) (humanized from mouse | human) (UniProt P01834). In words: SPR; 5E5 mAb amine-coupled (~25 000 RU); PAPGS*T*AP flowed; same conditions as for the Fab (25°C, HBS-EP); steady-state analysis.
The mark [6] stands for this setting: immobilized h-5E5 Fab, HBS-EP pH 7.4, 25°C.

Usually Kd stands for the free concentration of one partner at which half of the binding sites on the other are occupied at equilibrium, for simple one-to-one binding. The low end stands for higher affinity, the high end for lower affinity. Consider “PAPGS*T*AP [doubly glycosylated Tn-MUC1 peptide, where * represents GalNAc]”, for which the “binding to control surface” value in assay [1] is on record as “Neither glycopeptide bound to the control surface”. In addition, the Kd in assay [2] (Biacore T200, 25°C, HBS-EP (10 mM HEPES, 150 mM NaCl, 3 mM EDTA, 0.005% Tween 20 pH 7.4), Fab amine-coupled ∼10 000 RU on CM7 chip, peptide 6.25-100 µM, 20 µl/min, association 30 s, dissociation 60 s, steady-state analysis, three experimental replicates) was 40.7 ± 0.1 µM; in assay [3], 43.9 µM. The “observed Rmax” value in assay [2] (setting [6]) came out at 165 RU. Also, the “observed Rmax as % of the theoretical Rmax” value in assay [2] (setting [6]) came out at 70%.

B1: doubly glycosylated Tn-MUC1 peptide PAPGS*T*AP (peptide)
peptide: PAPGS(αGalNAc)T(αGalNAc)AP
With B1, the results for the Kd in assay [4] and in assay [5] were 40.7 µM and 43.9 µM, respectively.

B2: doubly glycosylated Tn-MUC1 peptide APGS*T*AP (peptide)
peptide: APGS(αGalNAc)T(αGalNAc)AP
B2: in assay [4], the Kd came to 60.9 µM.
